# Tested on: G. Stearothermophilus
# [1] = 36-m^3 room and 110-m^3 carpeted rooms, initial 40-55% RH, 20-25 C, biological indicators in Tyvek pouches
# Experimental: The application of condensed vapor cloud generated biocide dispersion was tested in a 36-m^3 single room and in 110-m^3 two-room model (family room+bathroom). The single room was tiled floor and two-room model had wall-to-wall carpet. With initial room humidity in the range 40-55% RH and 20-25 C, decontamination tests were carried out using biological indicators (BI). Biological indicator test disks were prepared by Mesa Labs. The Biological indicators are inoculated with 4-log, 5-log and 6-log populations of G. Stearothermophilus. The BI's are in Tyvek pouches. […] The condensed vapor generator was calibrated with scaling of room size, mass concentration, carpet/tilled floor, and initial RH and temperature.
structure (smiles),measurement,setting,value
"OO [HP, hydrogen peroxide]",HP concentration above which 5-log kills were observed,[1],above 0.7 g/m^3
same,HP concentration above which 6-log kill was observed,[1],above 1.8 g/m^3
same,kill time,HP mass injection rate of −50 g/min,10 to 15 min

# From patent publication US9533064B1, “Device and method for decontamination, disinfection, and sanitation” (Nanomist Systems, LLC, priority 2013, dated 2017)
